Patent US6413986B1, “[1-indanon-2-yl]methylpiperidines” (Aventis Pharmaceuticals Inc., priority 1991, dated 2002)
pIC50: −log10 of the molar value.

The compounds below were run against T1, Acetylcholinesterase (Rattus norvegicus, UniProt P37136) (assay: inhibition of acetyl cholinesterase activity (acetylthiocholine/DTNB spectrophotometric assay, rat striatal homogenate)). Details: rat corpora striata homogenate; preincubated for 10 minutes at 37° C.; substrate acetylthiocholine 5 mM final; DTNB 0.5 mM; 412 nm; log-probit analysis.
T1 construct: Male Wistar rats are decapitated, brains rapidly removed, corpora striata dissected free, weighed and homogenized; from tissue; host or cells: rat brain corpora striata homogenate (male Wistar rats)
T1 sequence (P37136 32-614): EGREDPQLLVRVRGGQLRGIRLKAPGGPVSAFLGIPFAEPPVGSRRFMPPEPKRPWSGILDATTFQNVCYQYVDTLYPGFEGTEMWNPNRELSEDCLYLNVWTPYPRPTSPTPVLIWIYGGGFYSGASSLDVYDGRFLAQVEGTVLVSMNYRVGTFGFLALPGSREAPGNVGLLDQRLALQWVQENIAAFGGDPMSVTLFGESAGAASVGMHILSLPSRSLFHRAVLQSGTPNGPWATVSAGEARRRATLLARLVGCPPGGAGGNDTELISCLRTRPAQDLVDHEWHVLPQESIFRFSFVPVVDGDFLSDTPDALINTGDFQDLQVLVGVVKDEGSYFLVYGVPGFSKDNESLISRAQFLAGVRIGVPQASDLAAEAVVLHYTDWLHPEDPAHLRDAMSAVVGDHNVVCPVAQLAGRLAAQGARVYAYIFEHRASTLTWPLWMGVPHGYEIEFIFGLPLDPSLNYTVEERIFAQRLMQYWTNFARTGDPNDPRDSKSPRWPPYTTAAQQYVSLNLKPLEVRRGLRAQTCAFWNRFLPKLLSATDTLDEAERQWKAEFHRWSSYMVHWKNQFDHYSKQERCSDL
Assay type: biochemical, Male Wistar rats
Method: The [1-indanon-2-yl]methylpiperidines of the present invention are useful as agents for the relief of memory dysfunction, particularly dysfunctions associated with decreased cholinergic activity such as those found in Alzheimer's disease.
4. A 2 mM stock solution of the test drug is made up in a suitable solvent and q.sed to volume with 0.5 mM DTNB (reagent 3). Drugs are serially diluted (1:10) such that the final concentration (in cuvette) is 10^−4M and screened for activity. If active, IC50 values are determined from the inhibitory activity of subsequent concentrations.
Male Wistar rats are decapitated, brains rapidly removed, corpora striata dissected free, weighed and homogenized in 19 volumes (approximately 7 mg protein/ml) of 0.05 M sodium phosphate, pH 7.2 using a Potter-Elvehjem homogenizer. A 25 μl aliquot of this suspension is added to 1 ml of the vehicle or various concentrations of the test drug and preincubated for 10 minutes at 37° C.
Enzyme activity is measured with the Beckman DU-50 spectrophotometer. This method can be used for IC50 determinations and for measuring kinetic constants.
Reagents are added to the blank and sample cuvettes as follows:
Blank values are determined for each run to control for non-enzymatic hydrolysis of substrate and these values are automatically subtracted by the kindata program available on kinetics soft-pac module. This program also calculates the rate of absorbance change for each cuvette.
Substrate concentration is 10 mM diluted 1:2 in assay yielding final concentration of 5 mM. DTNB concentration is 0.5 mM final concentration
% Inhibition=slope control-slope drug/slope control×100
IC50 values are calculated from log-probit analysis.
With `O=C(NCc1ccccc1)Oc1ccc2c(c1)C(=O)C(CC1CCN(Cc3cccc(F)c3)CC1)C2` (stereo not shown) [1-(3-Fluorobenzyl)-4-[[6-(benzylaminocarbonyloxy)-1-indanon]-2-yl]-methylpiperidine] the pIC50 was 5.50. `CNC(=O)Oc1ccc2c(c1)C(=O)C(CC1CCN(Cc3cccc(F)c3)CC1)C2` (stereo not shown) [1-(3-Fluorobenzyl)-4-[[6-(methylaminocarbonyloxy)-1-indanon]-2-yl]methylpiperidine] gave a pIC50 of 5.82. In the case of `CCCCNC(=O)Oc1ccc2c(c1)C(=O)C(CC1CCN(Cc3ccccc3)CC1)C2` (stereo not shown) [1-Benzyl-4-[[6-(butylaminocarbonyloxy)-1-indanon]-2-yl]methylpiperidine], the pIC50 was 5.84. With `CNC(=O)Oc1ccc2c(c1)C(=O)C(CC1CCN(Cc3ccccc3)CC1)C2` (stereo not shown) [1-Benzyl-4-[[6-methylaminocarbonyloxy)-1-indanon]-2-yl]methylpiperidine] the pIC50 was 5.87.
